Converted amounts (≈) assume the structure as drawn.
Test system: 73 M. tuberculosis strains (41 fully susceptible, 32 MDR)
Assay: microbe, parasite or virus in culture
Assay type: cell-based

COc1nc2ccc(Br)cc2cc1[C@@H](c1ccccc1)[C@@](O)(CCN(C)C)c1cccc2ccccc12 [Compound 12, (αS,βR)-6-bromo-α-[2-(dimethylamino)ethyl]-2-methoxy-α-1-naphthalenyl-β-phenyl-3-quinolineethanol]
difference in MIC between fully susceptible and MDR M. tuberculosis strains: No difference in MIC | MIC (Mycobacterium tuberculosis, 504 h, the majority of the 73 strains, agar plates, 36° C., 3 weeks): 0.032 µg/mL (≈ 0.0576 µM) | concentrations at which no growth was seen (all the tested strains (73), agar plates, 36° C., 3 weeks): higher than 0.064 mg/L
